# According to publication PMC6803667, “Binding site plasticity in viral PPxY Late domain recognition by the third WW domain of human NEDD4” (Scientific Reports, 2019):
# Values joined by “and” are separate entries in the source; they are usually repeats but may differ in a detail not shown here. Equal entries are not always repeated. Where two headings read alike, the source gives them in different places. Residues, ends and D or L forms follow the SMILES beside them. No end group written: not given here.
# Assays:
# hNEDD4-WW3 [1] = target: T1, hNEDD4-WW3 (Homo sapiens, UniProt P46934); test: biochemical; format: binding
# T1 construct: comprising aminoacids 834–878 (UniProtKB/Swiss-Prot code P46934); GST-His (pETM-30, TEV site) (N, cleaved yes); made in house; host or cells: E. coli BL21/DE3 is printed only for the pETM-11 NMR construct
# T1 sequence (P46934 834-878): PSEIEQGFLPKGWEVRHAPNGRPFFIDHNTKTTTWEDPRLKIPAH
# hYAP-WW1 [2] = target: T2, hYAP-WW1 (Homo sapiens, UniProt P46937); format: binding; settings: pH 7
# T2 construct: comprising aminoacids 165–209 and 228–271 respectively (UniProtKB/Swiss-Prot code Q7Z574); GST-His (pETM-30, TEV site) (N, cleaved yes); made in house
# T2 sequence (P46937 165-209): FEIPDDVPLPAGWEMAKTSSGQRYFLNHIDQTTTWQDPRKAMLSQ
# hYAP-WW2 [3] = target: T3, hYAP-WW2 (Homo sapiens, UniProt P46937); format: binding; settings: pH 7
# T3 construct: comprising aminoacids 165–209 and 228–271 respectively (UniProtKB/Swiss-Prot code Q7Z574); GST-His (pETM-30, TEV site) (N, cleaved yes); made in house
# T3 sequence (P46937 228-271): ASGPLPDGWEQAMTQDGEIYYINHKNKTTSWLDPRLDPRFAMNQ
# hYAP-WW1 [4] = target: T2, hYAP-WW1; settings: cited from earlier work
# hNEDD4L-WW3 = settings: cited from earlier work
# hNEDD4-WW3 [5] = target: T1, hNEDD4-WW3; settings: cited from earlier work
# hNEDD4-WW3 [6] = target: T1, hNEDD4-WW3
# rNEDD4-WW2 = settings: cited from earlier work
# hITCHY-WW3 = settings: cited from earlier work
# dNEDD4-WW3 = settings: cited from earlier work
# NEDD4L-WW2 = settings: cited from earlier work
# SMURF1-WW2 = settings: cited from earlier work
# SMURF2-WW3 = settings: cited from earlier work
# hYAP-WW2 [7] = target: T3, hYAP-WW2; settings: cited from earlier work
# hNEDD4-WW3 [8] = target: T1, hNEDD4-WW3; test: biochemical; format: binding; remark: listed apart in the source
# hYAP-WW1 [9] = target: T2, hYAP-WW1; test: biochemical; format: binding
# SU(dx)-WW4 = settings: cited from earlier work
compound,measurement,setting,value
CC(=O)N1CCC[C@H]1C(=O)N1CCC[C@H]1C(=O)N1CCC[C@H]1C(=O)N[C@@H](Cc1ccc(O)cc1)C(=O)N[C@H](C(=O)N[C@@H](CCC(=O)O)C(=O)N1CCC[C@H]1C(=O)N[C@H](C(=O)N[C@@H](C)C(=O)N1CCC[C@H]1C(N)=O)[C@@H](C)O)C(C)C [HTLV1 ter] (Ac-PPPYVEPTAP-NH2),ΔHap,hNEDD4-WW3 [1]; pH 7,-17.7 ± 0.19 kcal/mol
same,Kd,hYAP-WW1 [2],n. b.
same,Kd,hYAP-WW2 [3],n. b.
"GTPPPPYTVG [WBP1, WBP1 peptide of literature complex 1JMQ]",Kd,hYAP-WW1 [4],40 µM
CC(=O)N[C@@H](CC(=O)O)C(=O)N[C@@H](CC(C)C)C(=O)N[C@@H](Cc1c[nH]c2ccccc12)C(=O)N[C@@H](CC(C)C)C(=O)N1CCC[C@H]1C(=O)N1CCC[C@H]1C(=O)N1CCC[C@H]1C(=O)N[C@@H](CCC(=O)O)C(=O)N[C@@H](Cc1ccc(O)cc1)C(=O)N[C@H](C(=O)N1CCC[C@H]1C(=O)N[C@@H](CC(C)C)C(N)=O)C(C)C [Rabies],Kd,hNEDD4-WW3 [1],51 ± 1 µM
same,ΔHap,hNEDD4-WW3 [1]; pH 7,-15.7 ± 0.19 kcal/mol
same,ΔHap,hYAP-WW1 [2],-15.2 ± 0.22 kcal/mol
same,Kd,hYAP-WW2 [3],n. b.
"RLDLPPYETFEDI [HECT-Cterm, HECT C-terminal peptide of literature complex 2MPT]",Kd,hNEDD4L-WW3,4 µM
RPE−5AP−3P−2SY0AEVVT (RPEAPPSYAEVVT) [ARRDC3],Kd,hNEDD4-WW3 [5],3.3 µM and 3 µM
CSCC[C@H](NC(C)=O)C(=O)N[C@@H](CCC(N)=O)C(=O)N[C@@H](Cc1ccc(O)cc1)C(=O)N[C@@H](CC(C)C)C(=O)N[C@@H](CC(N)=O)C(=O)N1CCC[C@H]1C(=O)N1CCC[C@H]1C(=O)N1CCC[C@H]1C(=O)N[C@@H](Cc1ccc(O)cc1)C(=O)N[C@@H](C)C(=O)N[C@@H](CC(=O)O)C(=O)N[C@@H](Cc1c[nH]cn1)C(N)=O [Marburg],Kd,hNEDD4-WW3 [1],51 ± 1 µM
same,ΔHap,hNEDD4-WW3 [1]; pH 7,-17.5 ± 0.17 kcal/mol
"TAPPPAYATLG [αENaC, αENaC PY motif peptide of literature complex 2M30]",ΔH conf,hNEDD4-WW3 [6],"-48,29 kJ·mol -1"
same,Kd,hNEDD4-WW3 [5],45 µM
same,ΔH exp (25C),hNEDD4-WW3 [5],"-58,2 kJ·mol -1"
"APLpSPMpSPPGYKLV [CX43-Cter, Cx43 carboxyl terminus peptide of literature complex 2N8T]",Kd,rNEDD4-WW2,430 µM
RPE−5AP−3P−2SY0AEVVT [ARRDC3],ΔH conf,hNEDD4-WW3 [6],"-64,67 kJ·mol -1"
same,ΔH exp (25C),hNEDD4-WW3 [5],"-75,4 kJ·mol -1"
CC(=O)N[C@@H](CCC(=O)O)C(=O)N[C@@H](Cc1ccc(O)cc1)C(=O)N1CCC[C@H]1C(=O)N1CCC[C@H]1C(=O)N[C@@H](Cc1ccc(O)cc1)C(=O)N1CCC[C@H]1C(=O)N1CCC[C@H]1C(=O)N1CCC[C@H]1C(=O)N1CCC[C@H]1C(=O)N[C@@H](Cc1ccc(O)cc1)C(=O)N1CCC[C@H]1C(=O)N[C@@H](CO)C(=O)NCC(N)=O [p53bp2] (Ac-EYPPYPPPPYPSG-NH2),"binding selectivity between hNEDD4-WW3, YAP-WW1 and YAP-WW2",hNEDD4-WW3 [1],do not distinguish between the three WW domains
same,Kd,hNEDD4-WW3 [1],4.1 µM and 5.3 µM and 9.1 µM
same,ΔCp,hNEDD4-WW3 [1]; pH 7,−1.59 kJ K^−1 mol^−1 and −1.59 ± 0.01 kJ K^−1 mol^−1
same,ΔHap,hYAP-WW2 [3],-13.6 ± 0.24 kcal/mol
"EEPPPPYED [Epstein-Barr, Epstein-Barr peptide of literature complex 2JO9]",Kd,hITCHY-WW3,52 µM
"TGLPSYDEALH [Comm, Comm PY motif peptide of literature complex 2EZ5]",Kd,dNEDD4-WW3,3.1 µM
"ELESPPPPYSRYPMD [Smad7, Smad7 peptide […] of literature complexes 2LTY, 2LTX, 2LTZ, 2LTV, 2LTW]",Kd,NEDD4L-WW2,4.2 µM
same,Kd,SMURF1-WW2,4.2 µM
same,Kd,SMURF2-WW3,4.5 µM
same,Kd,hYAP-WW1 [4],6.9 µM
same,Kd,hYAP-WW2 [7],60 µM
GPPPY ({n‑octyl}-GPPPY) [peptide of literature complex 1K9Q],Kd,hYAP-WW1 [4],700 µM
PLPPY [peptide of literature complex 1K9R],Kd,hYAP-WW1 [4],500 µM
CC(=O)N1CCC[C@H]1C(=O)N1CCC[C@H]1C(=O)N1CCC[C@H]1C(=O)N[C@@H](Cc1ccc(O)cc1)C(N)=O [PPPY] (Ac-PPPY-NH2),Kd,hYAP-WW2 [3],n. b.
same,Kd,hNEDD4-WW3 [8],201 µM
same,ΔHap,hNEDD4-WW3 [8]; pH 7,^*−38 ± 1 kJ mol^−1
same,Kd,hYAP-WW1 [9],320 ± 30 µM
same,ΔHap,hYAP-WW1 [9]; pH 7,^*−39 ± 3 kJ mol^−1
"GSTLPIPGTPPPNYDSL [βENaC, βENaC peptide of literature complex 1I5H]",Kd,hNEDD4-WW3 [5],21 µM
CC[C@H](C)[C@H](NC(=O)[C@H](CCC(N)=O)NC(=O)[C@@H]1CCCN1C(=O)[C@H](CC(=O)O)NC(=O)[C@H](CO)NC(C)=O)C(=O)N1CCC[C@H]1C(=O)N1CCC[C@H]1C(=O)N1CCC[C@H]1C(=O)N[C@@H](Cc1ccc(O)cc1)C(=O)N[C@H](C(=O)N[C@@H](CCC(=O)O)C(=O)N1CCC[C@H]1C(N)=O)C(C)C [HTLV1] (Ac-SDPQIPPPYVEP-NH2),ΔΔH HTLV-Ebola,hNEDD4-WW3 [1],−20 kJ/mol^−1
same,amount by which theoretical enthalpy is smaller than the experimental enthalpy,hNEDD4-WW3 [6],12 kcal/mol
same,ΔH conf,hNEDD4-WW3 [6],"-49,97 kJ·mol -1"
CC[C@H](C)[C@H](NC(C)=O)C(=O)N[C@@H](CC(C)C)C(=O)N1CCC[C@H]1C(=O)N[C@H](C(=O)N[C@@H](C)C(=O)N1CCC[C@H]1C(=O)N1CCC[C@H]1C(=O)N[C@@H](CCC(=O)O)C(=O)N[C@@H](Cc1ccc(O)cc1)C(=O)N[C@@H](CCSC)C(=O)N[C@@H](CCC(=O)O)C(=O)N[C@@H](C)C(N)=O)[C@@H](C)O [Ebola],amount by which theoretical enthalpy is smaller than the experimental enthalpy,hNEDD4-WW3 [6],7.17 kcal/mol
same,ΔH conf,hNEDD4-WW3 [6],"-30,01 kJ·mol -1"
"NTGAKQPPSYEDCIK [Notch, Notch peptide of literature complex 2JMF]",Kd,SU(dx)-WW4,45 µM
